Results from US5942494A, “Stimulation of gene expression and synthesis of heat shock protein 72/73 (HSP 70)” (The Trustees of Columbia University in the City of New York, priority 1996, dated 1999).
Square brackets hold non-standard residues; d marks the D form. Peptide text beside a SMILES is read from it. Nle = CCCC[C@H](N)C(=O)O

Experiments:
Hsp86 = assay: Immunoprecipitation of Hsp86 from radiolabeled HepG2 cells; type: cell-based, human; settings: HepG2, ALLN 4 hours
Procedure: (§1) FIGS. 7A-7B: Effects of ALLN on the biosynthesis of other members of Hsp family and related proteins. HepG2 cells were pre-treated and radiolabeled with or without ALLN for 4 hours as described in FIG. 1. Cell lysates were used for SDS-PAGE (A), or for immunoprecipitation with anti-Hsp25, -Hsp27, -Hsp60, -Hsp70, -Hsp86, -Hsp90, -Hsp104, -Bip, or -albumin antibodies respectively (1 μg/ml) (B). Because the anti-Hsp25, -Hsp27, -Hsp60 and Hsp90 antibodies are from a rat source, rabbit anti-rat IgG antibody was added after the first incubation, and the incubation was extended for another 1 hour at 4° C. before collection with protein A-Sepharose.Immunoprecipitates were loaded for SDS-PAGE and aliquoted for scintillation counting and plotting. Each value was presented as mean ±S.D. from three individual culture dishes.
(§2) HepG2 cells were preincubated for 4 hours in serum-free MEM and then radiolabeled with ^3 H-Leucine (150 μCi/ml) in a serum-free, leucine-free medium. […] Cell lysates containing equal amounts of trichloroacetic acid (TCA)-insoluble radioactivity were used for immunoprecipitations by incubating with individual monoclonal antibody (1 μg/ml) for 2.5 hours at 4° C. […]

HSF1 = assay: Western blot of steady-state HSF1 protein levels in HepG2 whole cell extracts; type: cell-based, human; settings: ALLN 40 μg/ml, 2 hours, with or without cycloheximide
Procedure: FIGS. 6A-6B: ALLN affects the trimerization of HSF. HepG2 cells were treated with serum-free MEM containing 1.5% BSA for 2 hours at 37° C. without any additions (lane1), at 37 ° C. but containing 40μg/ml of ALLN in the medium (lane2), at 37° C. in a medium containing both ALLN and 50 μg/ml of cycloheximide (lane3) , at 42° C. alone (lane4), or at 42° C. plus cycloheximide in the medium (lane5). Cell lysates were prepared as described under Experimental Details. The lysates were either directly run on the SDS-PAGE (A) to show the steady-state protein levels of HSF1 or subjected to cross-linking with ethylene glycol bis sucrinimidylsuccinate (EGS) before running the gel (B) to show the oligomeric forms of HSF1. The proteins were then transfered to a nitrocellulose membrane and immunoblotted with anti-human HSF1 antibody. Arrows on the right side indicates the monomeric, dimeric or trimeric forms of HSF1, respectively. This experiment was repeated three times with identical results.
For measurement of the steady-state HSF1 protein levels, whole cell extracts were prepared by lysing the cells directly with 2×SDS-sample buffer (Maniatis, et al., 1982). For chemical cross-linking experiments, whole-cell extracts were prepared as described (Mosser, et al., 1988). Briefly, the cold PBS-washed cell pellets were quickly and repeatedly frozen in liquid nitrogen. […]

Hsp25 = assay: Immunoprecipitation of Hsp25 from radiolabeled HepG2 cells; type: cell-based, human; settings: HepG2, ALLN 4 hours
Procedure: as §1, §2

Hsp27 = assay: Immunoprecipitation of Hsp27 from radiolabeled HepG2 cells; type: cell-based, human; settings: HepG2, ALLN 4 hours
Procedure: as §1, §2

Hsp104 = assay: Immunoprecipitation of Hsp104 from radiolabeled HepG2 cells; type: cell-based, human; settings: HepG2, ALLN 4 hours
Procedure: as §1, §2

calpain = settings: Rock, et al., 1994; cited from earlier work

SMILES: CCCC[C@@H](C=O)NC(=O)[C@H](CC(C)C)NC(=O)[C@H](CC(C)C)NC(C)=O [ALLN, N-acetyl-leucyl-leucyl-norleucinal] (Ac-Leu-Leu-[Nle]-aldehyde)
- Effect on Hsp86 (Hsp86): no effects
- Steady-state levels of HSF1 in whole cell extracts (HSF1): not significantly affected
- Effect on Hsp25 (Hsp25): no effects
- Effect on Hsp27 (Hsp27): no effects
- Effect on Hsp104 (Hsp104): no effects
- Activity against calpain (calpain): significant activities
